Common to all, as to assay: KINOMEscan Assay (DiscoverX)
Assay type in all cases: binding
Holding throughout (details): read-out: % DMSO Ctrl

The target of experiment [1] is T1, EGFR(L858R,T790M) (Homo sapiens, UniProt P00533, L858R/T790M).
T1 construct: purchased DiscoverX

Experiment [2] deals with T2, FLT3(K663Q) (Homo sapiens, UniProt P36888, K663Q).
T2 construct: purchased DiscoverX
T2 sequence (P36888 27-993 K663Q): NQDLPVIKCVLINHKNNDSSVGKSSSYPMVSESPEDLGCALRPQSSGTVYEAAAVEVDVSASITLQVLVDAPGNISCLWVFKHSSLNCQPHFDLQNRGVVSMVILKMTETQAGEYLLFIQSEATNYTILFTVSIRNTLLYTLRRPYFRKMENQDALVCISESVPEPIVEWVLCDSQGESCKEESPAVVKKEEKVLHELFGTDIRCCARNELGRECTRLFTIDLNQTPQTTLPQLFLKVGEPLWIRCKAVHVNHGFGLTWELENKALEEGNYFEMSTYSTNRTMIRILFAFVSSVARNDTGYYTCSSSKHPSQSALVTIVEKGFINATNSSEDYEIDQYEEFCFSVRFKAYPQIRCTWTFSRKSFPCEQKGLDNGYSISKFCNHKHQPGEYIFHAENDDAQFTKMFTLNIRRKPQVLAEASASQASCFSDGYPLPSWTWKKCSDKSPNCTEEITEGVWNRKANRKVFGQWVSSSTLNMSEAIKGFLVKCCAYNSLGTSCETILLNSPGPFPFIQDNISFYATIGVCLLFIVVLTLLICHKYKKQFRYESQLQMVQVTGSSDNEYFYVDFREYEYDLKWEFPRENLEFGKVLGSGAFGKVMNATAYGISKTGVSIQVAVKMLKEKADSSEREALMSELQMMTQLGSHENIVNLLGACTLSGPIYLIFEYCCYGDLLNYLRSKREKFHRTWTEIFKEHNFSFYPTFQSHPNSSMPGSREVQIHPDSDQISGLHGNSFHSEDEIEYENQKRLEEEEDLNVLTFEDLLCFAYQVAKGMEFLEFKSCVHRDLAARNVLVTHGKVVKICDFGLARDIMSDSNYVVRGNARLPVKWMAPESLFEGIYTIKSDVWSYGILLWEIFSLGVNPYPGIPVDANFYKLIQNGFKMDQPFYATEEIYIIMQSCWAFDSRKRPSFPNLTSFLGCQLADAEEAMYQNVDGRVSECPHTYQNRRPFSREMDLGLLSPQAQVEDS

For experiment [3], the target named is T3, PIP5K2C (Homo sapiens, UniProt Q8TBX8).
T3 construct: purchased DiscoverX
T3 sequence (Q8TBX8 1-421): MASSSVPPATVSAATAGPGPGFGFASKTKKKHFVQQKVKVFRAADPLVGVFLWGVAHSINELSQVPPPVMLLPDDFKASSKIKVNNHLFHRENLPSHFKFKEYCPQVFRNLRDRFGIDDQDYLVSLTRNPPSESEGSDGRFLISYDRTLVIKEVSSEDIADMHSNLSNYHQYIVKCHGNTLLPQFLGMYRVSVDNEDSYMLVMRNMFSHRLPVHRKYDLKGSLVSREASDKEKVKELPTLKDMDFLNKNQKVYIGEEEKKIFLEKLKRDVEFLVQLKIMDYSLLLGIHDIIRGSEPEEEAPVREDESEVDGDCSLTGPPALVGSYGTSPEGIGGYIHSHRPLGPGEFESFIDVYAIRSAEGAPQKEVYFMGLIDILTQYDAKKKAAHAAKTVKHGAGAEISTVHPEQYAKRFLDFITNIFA

The target of experiment [4] is T4, PIK3C2G (Homo sapiens, UniProt O75747).
T4 construct: purchased DiscoverX
T4 sequence (O75747 1-1486): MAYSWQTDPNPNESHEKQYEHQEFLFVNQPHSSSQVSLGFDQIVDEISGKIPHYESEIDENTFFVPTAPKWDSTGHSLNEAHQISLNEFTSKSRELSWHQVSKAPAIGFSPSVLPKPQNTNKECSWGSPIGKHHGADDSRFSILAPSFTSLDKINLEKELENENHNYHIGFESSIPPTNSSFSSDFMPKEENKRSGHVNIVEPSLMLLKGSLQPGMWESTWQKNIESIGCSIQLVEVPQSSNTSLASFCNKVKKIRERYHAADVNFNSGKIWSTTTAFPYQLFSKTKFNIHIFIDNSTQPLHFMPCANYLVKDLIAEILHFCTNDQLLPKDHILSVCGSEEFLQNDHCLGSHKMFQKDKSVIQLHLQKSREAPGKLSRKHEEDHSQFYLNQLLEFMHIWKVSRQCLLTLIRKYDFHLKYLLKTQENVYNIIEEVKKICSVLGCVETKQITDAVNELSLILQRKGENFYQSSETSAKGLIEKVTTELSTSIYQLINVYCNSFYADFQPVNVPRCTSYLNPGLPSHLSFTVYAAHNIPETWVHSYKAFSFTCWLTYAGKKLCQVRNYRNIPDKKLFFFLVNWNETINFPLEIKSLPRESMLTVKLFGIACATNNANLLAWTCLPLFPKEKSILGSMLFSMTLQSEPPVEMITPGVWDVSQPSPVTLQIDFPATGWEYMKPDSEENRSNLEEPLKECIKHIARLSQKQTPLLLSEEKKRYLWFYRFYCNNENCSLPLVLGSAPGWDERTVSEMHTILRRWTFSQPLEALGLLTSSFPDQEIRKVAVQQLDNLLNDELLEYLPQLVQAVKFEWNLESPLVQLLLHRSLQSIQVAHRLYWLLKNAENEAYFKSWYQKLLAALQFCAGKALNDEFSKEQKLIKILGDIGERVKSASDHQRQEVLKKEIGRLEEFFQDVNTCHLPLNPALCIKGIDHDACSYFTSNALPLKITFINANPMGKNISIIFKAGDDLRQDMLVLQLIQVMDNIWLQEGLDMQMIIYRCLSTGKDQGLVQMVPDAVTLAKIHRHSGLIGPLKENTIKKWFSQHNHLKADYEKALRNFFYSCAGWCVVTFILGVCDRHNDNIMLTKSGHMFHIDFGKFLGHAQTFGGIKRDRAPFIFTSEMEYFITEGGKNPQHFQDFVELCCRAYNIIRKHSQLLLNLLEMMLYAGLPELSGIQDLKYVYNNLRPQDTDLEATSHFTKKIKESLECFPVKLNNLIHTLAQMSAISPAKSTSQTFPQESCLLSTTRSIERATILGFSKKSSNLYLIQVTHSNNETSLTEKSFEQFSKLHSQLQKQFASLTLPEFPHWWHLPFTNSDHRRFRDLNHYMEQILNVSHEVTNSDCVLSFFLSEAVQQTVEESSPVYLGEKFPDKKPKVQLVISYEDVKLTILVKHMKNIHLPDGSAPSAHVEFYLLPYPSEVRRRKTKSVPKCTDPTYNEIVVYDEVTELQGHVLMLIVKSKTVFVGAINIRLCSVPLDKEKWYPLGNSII

Like-named read-outs stand apart in the source and are kept apart here.

T1 sequence (P00533 25-1210 T790M/L858R): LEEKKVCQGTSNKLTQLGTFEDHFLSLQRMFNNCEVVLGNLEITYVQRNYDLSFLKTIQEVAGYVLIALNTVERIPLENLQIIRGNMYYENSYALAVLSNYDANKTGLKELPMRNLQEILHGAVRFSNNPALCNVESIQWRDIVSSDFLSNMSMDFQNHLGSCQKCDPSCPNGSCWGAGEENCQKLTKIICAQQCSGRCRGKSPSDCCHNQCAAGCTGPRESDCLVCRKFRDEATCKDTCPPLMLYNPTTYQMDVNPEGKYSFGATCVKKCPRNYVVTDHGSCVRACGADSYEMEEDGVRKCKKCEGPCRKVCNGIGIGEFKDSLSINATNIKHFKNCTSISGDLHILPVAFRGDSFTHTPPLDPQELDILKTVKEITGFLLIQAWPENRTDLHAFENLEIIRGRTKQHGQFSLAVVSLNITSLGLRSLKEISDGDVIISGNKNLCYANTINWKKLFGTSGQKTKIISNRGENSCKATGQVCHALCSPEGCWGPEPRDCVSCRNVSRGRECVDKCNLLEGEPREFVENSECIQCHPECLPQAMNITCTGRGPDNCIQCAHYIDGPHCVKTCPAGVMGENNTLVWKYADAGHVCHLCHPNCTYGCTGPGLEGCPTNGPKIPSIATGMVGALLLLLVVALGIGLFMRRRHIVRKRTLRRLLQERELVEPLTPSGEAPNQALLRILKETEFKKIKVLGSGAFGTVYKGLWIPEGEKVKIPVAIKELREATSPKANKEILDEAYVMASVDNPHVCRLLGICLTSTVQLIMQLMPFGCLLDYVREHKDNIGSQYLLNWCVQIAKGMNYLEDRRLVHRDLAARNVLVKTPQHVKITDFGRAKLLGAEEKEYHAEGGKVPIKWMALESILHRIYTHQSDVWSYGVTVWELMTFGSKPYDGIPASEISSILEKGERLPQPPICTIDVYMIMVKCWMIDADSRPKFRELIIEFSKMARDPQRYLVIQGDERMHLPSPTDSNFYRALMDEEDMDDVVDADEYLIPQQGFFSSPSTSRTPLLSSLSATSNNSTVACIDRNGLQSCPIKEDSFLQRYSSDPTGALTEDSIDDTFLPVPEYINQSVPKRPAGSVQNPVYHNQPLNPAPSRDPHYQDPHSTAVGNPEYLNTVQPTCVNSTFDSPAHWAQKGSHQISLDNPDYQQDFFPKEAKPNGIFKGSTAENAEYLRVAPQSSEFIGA

Consider `COc1ccc2c(c1)[nH]c1c(C)nc(CO)cc12` [Compound 2-8, (1-Methyl-7-methoxy-9H-pyrido[3,4-b]indol-3-yl)methanol], for which the remaining binding at 10 µM in experiment [1] (EGFR(L858R,T790M) mutant, 10 μM) is 79%; in experiment [2] (FLT3(K663Q) mutant, 10 μM) it was 100%; in experiment [3] (PIP5K2C, 10 μM) it was 5%; in experiment [4] (PIK3C2G, 10 μM) it was 36%.

Turning to `COc1ccc2c3ccnc(C)c3n(CCCc3noc(N)n3)c2c1` [Compound 20-13, 3-(3-(7-Methoxy-1-methyl-β-carbolin-9-yl)propyl)-5-amino-1,2,4-oxadiazole], the remaining binding at 10 µM in experiment [1] is 9.2%; in experiment [2], 98%; in experiment [3] it was 13%; in experiment [4], 1.2%.

Take `C#CCn1c2cc(OC)ccc2c2ccnc(C)c21` [Compound 20-23a, 3-(7-Methoxy-1-methyl-β-carbolin-9-yl)-propan-1-yne]: the remaining binding at 10 µM in experiment [1] was 100%; in experiment [2], 93%; in experiment [3], 41%; in experiment [4] it was 38%.

The record behind these values is patent publication US12421232B2, “Kinase inhibitor compounds and compositions and methods of use” (ICAHN SCHOOL OF MEDICINE AT MOUNT SINAI, priority 2018, dated 2025).
